Data as given in US4328334A, “11-Aza-10-deoxo-10-dihydroerythromycin A and derivatives thereof as well as a process for their preparation” (PLIVA Pharmaceutical and Chemical Works, priority 1979, dated 1982).
≈ marks a conversion by molar mass, not a printed value. Like-named read-outs stand apart in the source and are kept apart here.

How the values were obtained:
[1] = system: Streptococcus faecalis ATCC 8043; test: in vitro minimum inhibitory concentration, Streptococcus faecalis ATCC 8043; format: cell-based; conditions: Enterococcus faecalis
[2] = system: Staphylococcus epidermidis ATCC 12228; test: in vitro minimum inhibitory concentration, Staphylococcus epidermidis ATCC 12228; format: cell-based; conditions: ATCC12228; in vitro, Staphylococcus epidermidis ATCC 12228; read-out: minimum inhibitory concentrations (MIC)
[3] = system: Staphylococcus aureus ATCC 6538-P; test: in vitro minimum inhibitory concentration, Staphylococcus aureus ATCC 6538-P; format: cell-based; conditions: ATCC6538; in vitro, Staphylococcus aureus ATCC 6538-P; read-out: minimum inhibitory concentrations (MIC)
[4] = system: Micrococcus flavus ATCC 10240; test: in vitro minimum inhibitory concentration, Micrococcus flavus ATCC 10240; format: cell-based
Sarcina lutea ATCC 9341 = test: in vitro minimum inhibitory concentration, Sarcina lutea ATCC 9341; format: cell-based; conditions: Micrococcus luteus, ATCC9341, read-out: minimum inhibitory concentrations (MIC)
[5] = system: Bacillus cereus var. mycoides ATCC 11778; test: microbe, parasite or virus in culture; format: cell-based; conditions: ATCC11778, read-out: minimum inhibitory concentrations (MIC)
[6] = system: Bacillus subtilis ATCC 6633; test: in vitro minimum inhibitory concentration, Bacillus subtilis ATCC 6633; format: cell-based; conditions: ATCC6633; in vitro, Bacillus subtilis ATCC 6633; read-out: minimum inhibitory concentrations (MIC)
[7] = system: Corynebacterium xerosis NCTC 9755; test: in vitro minimum inhibitory concentration, Corynebacterium xerosis NCTC 9755; format: cell-based; conditions: NCTC9755; in vitro, Corynebacterium xerosis NCTC 9755; read-out: minimum inhibitory concentrations (MIC)
[8] = system: Brucella bronchiseptica ATCC 4617; test: microbe, parasite or virus in culture; format: cell-based; conditions: Bordetella bronchiseptica, ATCC4617, read-out: minimum inhibitory concentrations (MIC)
[9] = system: Pseudomonas aeruginosa NCTC 10490; test: in vitro minimum inhibitory concentration, Pseudomonas aeruginosa NCTC 10490; format: cell-based; conditions: NCTC10490; in vitro, Pseudomonas aeruginosa NCTC 10490; read-out: minimum inhibitory concentrations (MIC)
[10] = system: Klebsiella pneumoniae ATCC 10031; test: in vitro minimum inhibitory concentration, Klebsiella pneumoniae ATCC 10031; format: cell-based; conditions: ATCC10031; in vitro, Klebsiella pneumoniae ATCC 10031; read-out: minimum inhibitory concentrations (MIC)
[11] = system: Escherichia coli ATCC 10536; test: in vitro minimum inhibitory concentration, Escherichia coli ATCC 10536; format: cell-based; conditions: ATCC10536, read-out: minimum inhibitory concentrations (MIC)
[12] = system: Shigella flexneri II-1819/C; test: in vitro minimum inhibitory concentration, Shigella flexneri II-1819/C; format: cell-based; conditions: II1819/C, read-out: minimum inhibitory concentrations (MIC)
Experimental: In order to examine the antibacterial action, some new compounds were tested in vitro on a series of gram-positive and gram-negative micro-organisms. The results are shown in Table 1 as minimum inhibitory concentrations (MIC) in mcg/ml in comparision with erythromycin A erythromycin A oxime.

Salmonella panama = test: in vitro minimum inhibitory concentration, Salmonella panama; format: cell-based; conditions: Salmonella enterica; in vitro, Salmonella panama; read-out: minimum inhibitory concentrations (MIC)
[13] = acute i.v. toxicity in albino mice (Litchfield-Wilcoxon); conditions: mouse, in vivo, iv; acute i.v., albino mice
albino mice = test: as above; conditions: mouse, in vivo, iv
[14] = system: Staphylococcus aureus ATCC 6538-P; test: stability in acid medium: MIC after exposure to 1 N HCl; format: cell-based; conditions: for stability in acid medium compared with erythromycin A / stability in acid medium compared with erythromycin A oxime: pH 1.2, 30 minutes to 6 hours; for MIC: ATCC6538, pH 1.2, Staphylococcus aureus ATCC 6538-P
[15] = pKb in dimethyl formamide-water; format: physicochemical; conditions: dmf (66% v/v)-water; dimethyl formamide (66% v/v)-water
[16] = ATCC8043, in vitro, Streptococcus faecalis ATCC 8043, read-out: minimum inhibitory concentrations (MIC)
[17] = ATCC10240, in vitro, Micrococcus flavus ATCC 10240, read-out: minimum inhibitory concentrations (MIC)
[18] = exposure time 1/2 hour, 1 N HCl

SMILES: CC[C@H]1OC(=O)[C@H](C)[C@@H](O[C@H]2C[C@@](C)(OC)[C@@H](O)[C@H](C)O2)[C@H](C)[C@@H](O[C@@H]2O[C@H](C)C[C@H](N(C)C)[C@H]2O)[C@](C)(O)C[C@@H](C)CN[C@H](C)[C@@H](O)[C@]1(C)O [Compound I, 11-aza-4-0-cladinosyl-6-0-desosaminyl-15-ethyl-7,13,14-trihydroxy-3,5,7,9,12,14-hexamethyloxacyclopentadecane-2-one]
- MIC [1, 16]: 0.5 µg/mL (≈ 0.68 µM)
- MIC [2]: 0.5 µg/mL (≈ 0.68 µM)
- MIC [3]: 0.5 µg/mL (≈ 0.68 µM)
- MIC [4, 17]: 0.05 µg/mL (≈ 0.068 µM)
- MIC (Sarcina lutea ATCC 9341): 0.05 µg/mL (≈ 0.068 µM)
- MIC [5]: 0.5 µg/mL (≈ 0.68 µM)
- MIC [6]: 5 µg/mL (≈ 6.8 µM)
- MIC [7]: 1 µg/mL (≈ 1.36 µM)
- MIC [8]: 1 µg/mL (≈ 1.36 µM)
- MIC [9]: 50 µg/mL (≈ 68 µM)
- MIC [10]: 10 µg/mL (≈ 13.6 µM)
- MIC [11]: 10 µg/mL (≈ 13.6 µM)
- MIC [12]: 10 µg/mL (≈ 13.6 µM)
- MIC (Salmonella panama): 50 µg/mL (≈ 68 µM)
- LD50 [13]: 110 mg/kg
- acute i.v. toxicity compared with erythromycin A oxime (albino mice): less toxic that the starting erythromycin A oxime
- stability in acid medium compared with erythromycin A ([14]; 1 N HCl): significantly more stable than erythromycin A
- stability in acid medium compared with erythromycin A oxime ([14]; 1 N HCl): within the range of that of the starting antibioticum erythromycin A oxime
- MIC ([14]; exposure time 0 hours): 0.5 µg/mL (≈ 0.68 µM)
- MIC [14, 18]: 0.5 µg/mL (≈ 0.68 µM)
- MIC ([14]; exposure time 1 hour, 1 N HCl): 0.5 µg/mL (≈ 0.68 µM)
- MIC ([14]; exposure time 2 hours, 1 N HCl): 1 µg/mL (≈ 1.36 µM)
- MIC ([14]; exposure time 3 hours, 1 N HCl): 1 µg/mL (≈ 1.36 µM)
- MIC ([14]; exposure time 6 hours, 1 N HCl): 1 µg/mL (≈ 1.36 µM)

SMILES: CC[C@H]1OC(=O)[C@H](C)[C@@H](O[C@H]2C[C@@](C)(OC)[C@@H](OC(C)=O)[C@H](C)O2)[C@H](C)[C@@H](O[C@@H]2O[C@H](C)C[C@H](N(C)C)[C@H]2OC(C)=O)[C@](C)(O)C[C@@H](C)CN(C(C)=O)[C@H](C)[C@@H](O)[C@]1(C)O [Compound III, 2',4"-N-triacetyl-11-aza-10-deoxo-10-dihydroerythromycin A]
- MIC [1, 16]: 125 µg/mL (≈ 145 µM)
- MIC [2]: 200 µg/mL (≈ 232 µM)
- MIC [3]: 150 µg/mL (≈ 174 µM)
- MIC [4, 17]: 50 µg/mL (≈ 58.1 µM)
- MIC (Sarcina lutea ATCC 9341): 10 µg/mL (≈ 11.6 µM)
- MIC [5]: 200 µg/mL (≈ 232 µM)
- MIC [6]: 175 µg/mL (≈ 203 µM)

SMILES: CC[C@H]1OC(=O)[C@H](C)[C@@H](O[C@H]2C[C@@](C)(OC)[C@@H](OC(C)=O)[C@H](C)O2)[C@H](C)[C@@H](O[C@@H]2O[C@H](C)C[C@H](N(C)C)[C@H]2OC(C)=O)[C@](C)(O)C[C@@H](C)CN(C(C)=O)[C@H](C)[C@@H](OC(C)=O)[C@]1(C)O [Compound IV, 2',4",13,N-tetraacetyl-11-aza-10-deoxo-10-dihydroerythromycin A]
- MIC ([1]; ATCC8043, read-out: minimum inhibitory concentrations (MIC)): 175 µg/mL (≈ 194 µM)
- MIC [2]: 200 µg/mL (≈ 221 µM)
- MIC [3]: 200 µg/mL (≈ 221 µM)
- MIC ([4]; Micrococcus flavus, ATCC10240, read-out: minimum inhibitory concentrations (MIC)): 175 µg/mL (≈ 194 µM)
- MIC (Sarcina lutea ATCC 9341): 10 µg/mL (≈ 11.1 µM)
- MIC [5]: 175 µg/mL (≈ 194 µM)
- MIC [6]: 200 µg/mL (≈ 221 µM)

SMILES: CCC(=O)N1C[C@H](C)C[C@@](C)(O)[C@H](O[C@@H]2O[C@H](C)C[C@H](N(C)C)[C@H]2O)[C@@H](C)[C@H](O[C@H]2C[C@@](C)(OC)[C@@H](O)[C@H](C)O2)[C@@H](C)C(=O)O[C@H](CC)[C@@](C)(O)[C@H](O)[C@H]1C [Compound V, N-propionyl-11-aza-10-deoxo-10-dihydroerythroycin A]
- pKa [15]: 8.6

SMILES: CC[C@H]1OC(=O)[C@H](C)[C@@H](O[C@H]2C[C@@](C)(OC)[C@@H](O)[C@H](C)O2)[C@H](C)[C@@H](O[C@@H]2O[C@H](C)C[C@H](N(C)C)[C@H]2O)[C@](C)(O)C[C@@H](C)CN[C@H](C)[C@H]2OC(=O)O[C@@]21C [Compound VI, 11-aza-10-deoxo-10-dihydroerythromycin A cyclic 13,14-carbonate]
- MIC [1, 16]: 0.05 µg/mL (≈ 0.0657 µM)
- MIC [2]: 2.5 µg/mL (≈ 3.29 µM)
- MIC [3]: 1 µg/mL (≈ 1.31 µM)
- MIC [4, 17]: 0.5 µg/mL (≈ 0.657 µM)
- MIC (Sarcina lutea ATCC 9341): 0.1 µg/mL (≈ 0.131 µM)
- MIC [5]: 2.5 µg/mL (≈ 3.29 µM)
- MIC [6]: 0.5 µg/mL (≈ 0.657 µM)
- stability in acid medium compared with erythromycin A ([14]; 1 N HCl): significantly more stable than erythromycin A
- stability in acid medium compared with erythromycin A oxime ([14]; 1 N HCl): within the range of that of the starting antibioticum erythromycin A oxime
- MIC ([14]; exposure time 0 hours): 1 µg/mL (≈ 1.31 µM)
- MIC [14, 18]: 1 µg/mL (≈ 1.31 µM)
- MIC ([14]; exposure time 1 hour, 1 N HCl): 1 µg/mL (≈ 1.31 µM)
- MIC ([14]; exposure time 2 hours, 1 N HCl): 2.5 µg/mL (≈ 3.29 µM)
- MIC ([14]; exposure time 3 hours, 1 N HCl): 2.5 µg/mL (≈ 3.29 µM)
- MIC ([14]; exposure time 6 hours, 1 N HCl): 2.5 µg/mL (≈ 3.29 µM)
